Measurements published in the pKa sets of Baltruschat and Czodrowski (2020).

SMILES	pKa
CNC(=O)c1c(NCC2CCC3(CCC3)CC2)nc(C#N)nc1OCCC1CC[NH+](C)CC1	10.2
CCCCC(=O)N1CCC(CNc2nc3c(s2)CCOc2ccc(F)cc2-3)CC1	3.69
C/C(=C\c1ccc(C)cn1)[C@@H]1C[C@@H]2O[C@]2(C)CCC[C@H](C)[C@H](O)[C@@H](C)C(=O)C(C)(C)[C@@H](O)CC(=O)O1	4.5
CN(CCO)c1cc2c(=O)n(NS(C)(=O)=O)c(=O)[nH]c2cc1C(F)(F)F	8.3
O=C([O-])c1ccc(-c2nc(-c3cccc(C(F)(F)F)c3)cs2)cc1	4.1
Cc1cc(C)nc(N2CCC3(CCCN(Cc4c[nH]c5ccccc45)C3=O)CC2)n1	4.94
Cc1c(-c2ccccc2)c(=O)oc2cc(O)ccc12	7.74
Cc1nc[n+]([O-])c(C)c1C(=O)N1CCC(C)([NH+]2CCC(N(c3ccccc3)c3ccccc3)CC2)CC1	8.5
COc1cc(C(C)=O)ccc1OCCC[NH+]1CCC(c2noc3cc(F)ccc23)CC1	8.2
CC(C)(C)[NH2+]C[C@H](O)c1cc(Cl)c(N)c(Cl)c1	9.7
Cc1nc2ccccn2c1C(=O)NCc1ccc(-c2ccccc2)cc1	4.7
Cc1ccnc(N2CCC3(CCCN(Cc4c[nH]c5ccccc45)C3=O)CC2)n1	4.2
CCCCCCCCc1ccc(CCC([NH3+])(CO)CO)cc1	8.52
Cc1[nH]c2ccccc2c1CC[NH+]1CCc2cc(CCC(=O)N=O)ccc2C1	7.96
COc1ccc(N2CCc3c(-n4ccc(N5CCNC5=O)n4)cc(C)nc32)c(C)c1	6.37
C/C(=C\c1cc(C)ccn1)[C@@H]1C[C@@H]2O[C@]2(C)CCC[C@H](C)[C@H](O)[C@@H](C)C(=O)C(C)(C)[C@@H](O)CC(=O)O1	5.5
CCN(Cc1ccccc1)c1ccccc1	5.8
Cc1ccc(C)n1-c1ccc(Cl)cc1C(=O)[O-]	3.35
O=C1CN=C(c2ccccc2)c2cc3ccccc3cc2N1	3.8

SMILES	pKa
Cc1onc(-c2ccccc2)c1-c1ccc(S(N)(=O)=O)cc1	10
O=NC(=O)CCc1ccc(C[NH+]2CCC(c3c[nH]c4ccccc34)CC2)cc1	8.55
CC1CCCN(C(=O)c2ccc(Nc3ccc(Cl)cc3)nc2)C1 (configuration not stated)	3.4
CN(n1c(=O)[nH]c2cc(Cl)ccc2c1=O)S(C)(=O)=O	8.4
C[NH+](C)CC1CCc2cc(NC(=O)c3ccc(-c4ccc(F)cc4)cc3)ccc2C1 (configuration not stated)	9.1
COc1ccc(SC)c2c1C[C@@H]1[C@@H](C2)OCC[NH+]1C	6.25
CCOC(=O)c1c(C)cc2nc(COC(=O)NCCO)n(-c3ccccc3S(=O)(=O)NC)c(=O)c2c1C	10.6
Cc1nc(-n2ccc([O-])cc2=O)sc1C(=O)NCc1ccccc1	5.2
NS(=O)(=O)Oc1ccc2nc(C=C3C4CC5CC(C4)CC3C5)oc2c1	8.26
CC/C(=C(\c1ccccc1)c1ccc(/C=C/C(=O)[O-])cc1)c1ccccc1	4.26
COc1ccc(C#CC(C)(C)[NH3+])cc1C(=O)c1ccc(Nc2ccc(F)cc2F)cc1	8.1
COc1ccc(-c2c(C)nc3c(-c4ccccn4)cnn3c2N)cc1	6.07
[NH3+]C(CO)c1ccccc1 (configuration not stated)	8.4
CS(=O)(=O)Nn1c(=O)[nH]c2cc(C(F)(F)F)c(N3CCOCC3)cc2c1=O	8.35
O=C(NCC[NH+]1CCC(n2c(=O)[nH]c3cc(F)ccc32)CC1)c1ccc(F)cc1	8.77
COc1cc(C(C)O)ccc1OCCC[NH+]1CCC(c2noc3cc(F)ccc23)CC1 (configuration not stated)	8.25
O=C1c2ccccc2-[n+]2ccc3c([nH]c4ccccc43)c21	8.7
Cc1cccc(C)c1C(=O)N1CCC(C)([NH+]2CCC(N(c3ccccc3)c3ccccc3)CC2)CC1	8.35
CN1c2ccc(C#N)cc2N=C(c2ccc(C(=O)[O-])c(F)c2)c2cc3c(cc21)C(C)(C)CCC3(C)C	3.4

Now from value to compound:

pKa	SMILES
4.6	OCCn1cc(-c2cnc3nnn(Cc4ccc5ncccc5c4)c3n2)cn1
2.4	CC(=C(C#N)C#N)c1ccc2cc(N(C)CCF)ccc2c1
7.94	O=c1[nH]c(-c2ccc(C(F)(F)F)cc2)nc2c1CSCC2
6	Cc1ncc(-c2ccc(C(F)(F)F)cc2)c(NC2CCCCCC2)n1
3.38	CC(C)N(CCCCOCC(=O)[O-])c1cnc(-c2ccccc2)c(-c2ccccc2)n1
5.28	COc1ccnc(N2CCC3(CCCN(Cc4c[nH]c5ccccc45)C3=O)CC2)n1
3.5	CN1c2ccc(C#N)cc2N=C(c2ccc(C(=O)[O-])cc2)c2cc3c(cc21)C(C)(C)CCC3(C)C
9.2	CNC(=O)c1c(NCC2CCC3(CCC3)CC2)nc(C#N)nc1OC1CC(C)(C)[NH2+]C(C)(C)C1
5.6	COc1ccc(SCCc2ccncc2)cc1
5	Cc1nc(N2CCN(CC3CC3)C2=O)sc1C(=O)NCc1cccnc1
5.3	CCC1CCCCN1C(=O)c1cnc(Nc2ccc(C)nc2)c(Cl)c1 (configuration not stated)
9.2	CC[C@H](C(=O)NO)[C@H](C(=O)N1CCCC[C@H]1C(=O)NC)c1ccc(Cl)cc1
3.84	CS(=O)(=O)c1ccc(C(=O)Nc2ccc(Cl)c(-c3ccccn3)c2)c(Cl)c1
3.7	CCOCC(=O)N1CCC(CNc2nc3c(s2)CCOc2ccc(F)cc2-3)CC1
4.2	N#Cc1ncc2cc(COc3ccc(C(=O)[O-])cc3)n(CCC3CCCCC3)c2n1
2.9	C=CCNc1ccc2c(c1)c(-c1ccc(C(C)C)cc1)nc(=O)n2C(C)C
3.8	Cc1ccc2c(=O)c3cccc(CC(=O)[O-])c3oc2c1C
9.46	Cc1ccc(-c2cc(C(F)(F)F)nn2-c2ccc(S(N)(=O)=O)cc2)cc1
4.94	Fc1ccc2c(/C=C/c3nn[n-]n3)c[nH]c2c1
4.31	CC(=O)N1CCC(CNc2nc3c(s2)CCCc2ccc(F)cc2-3)CC1
4.42	O=c1[nH]c2c(Cc3nn[n-]n3)c3ccccc3n2c2ccccc12
4.25	CNc1nc2ccccc2n(C)c1=O
2.92	CC(=O)Nc1cccc2c1c(Sc1ccc(Cl)cc1)c(C)n2CC(=O)[O-]

pKa	SMILES
5.2	Cc1ccc(Nc2ncc(C(=O)N3CCCCC3)cc2Cl)cn1
8.59	Cc1[nH]c2ccccc2c1C1CC[NH+](Cc2ccc(CCC(=O)N=O)cc2)C1 (configuration not stated)
7.87	O=c1[nH]c(-c2ccc(C(F)(F)F)cc2)nc2c1CCOC2
7.1	COc1ccc(OC)c(CNc2ccc3nc(N)nc(N)c3c2Cl)c1
7.32	COc1ccc(OC)c(S(=O)(=O)N2CCC(CN3CC[NH+](Cc4ccc(F)cc4)CC3)CC2)c1
6.8	Cn1c(=O)n(NS(C)(=O)=O)c(=O)c2ccc(Cl)cc21
9.43	Cc1cc(N2CCCC2)cc(/C=C/c2cccc(C(F)(F)F)c2)[nH+]1
8.4	CS(=O)(=O)Nn1c(=O)[nH]c2cc(C(F)(F)F)c(N3CCCOCC3)cc2c1=O
5.9	CC(=O)Nc1cc(Cl)ccc1/C=C/C(=O)N1CC[NH+](Cc2ccc(F)cc2)C[C@H]1C
6	Cc1ncc(-c2ccc(C(F)(F)F)cc2)c(NC2C3CC4CC(C3)CC2C4)n1 (configuration not stated)
7.7	C[C@@H](NC(=O)c1cc(C(=O)N[C@@H](Cc2ccccc2)[C@H](O)C[NH2+]C2CC2)cc(N(C)S(C)(=O)=O)c1)c1ccc(F)cc1
7.31	CS(=O)(=O)c1ccc(-c2nc3c(c(=O)[nH]2)COCC3)cc1
5	C/C(=C\c1ccccn1)[C@@H]1C[C@@H]2O[C@]2(C)CCC[C@H](C)[C@H](O)[C@@H](C)C(=O)C(C)(C)[C@@H](O)CC(=O)O1
3.9	O=C([O-])c1ccc(-c2ccccc2)cc1
2.1	CC(C)(C)OC(=O)N1CCC(C(=O)NS(=O)(=O)c2c(Cl)sc(Cl)c2Br)CC1
7.8	C[NH+](CCC(=O)N1CCN(c2ccc(F)c(F)c2)CC1)CCC1c2ccccc2-c2ccccc21
5.5	C/C(=C\c1cccc(C)n1)[C@@H]1C[C@@H]2O[C@]2(C)CCC[C@H](C)[C@H](O)[C@@H](C)C(=O)C(C)(C)[C@@H](O)CC(=O)O1
9.55	NC1=[NH+]c2ccccc2CC1
3.37	CC(C)N(CCCCOCC(=O)NS(C)(=O)=O)c1cnc(-c2ccccc2)c(-c2ccccc2)n1
8.6	CS(=O)(=O)Nn1c(=O)[nH]c2cc(C(F)(F)F)c(N)cc2c1=O
3.3	CC(=O)N1CCN(c2ccc(OCc3cc4cnc(C#N)nc4n3CCC3CCCCC3)cc2)CC1
8.38	Cn1c(-c2ccc(C[NH+](C)C)cc2)cc2onc(-c3ccccc3)c2c1=O
7.5	O=c1cc(CSc2cccc(F)c2F)nc2cc(-c3ccco3)[nH]n12

remark: another data set of the same source

SMILES	pKa
C1=C(c2cccc3ccccc23)N2CC[NH+]=C2c2ccccc21	10.3
O=c1[nH]c2cc(C(F)(F)F)ccc2n1Cc1cc(Cl)ccc1O	9.75
COc1ccc(N2CCOCC2)c2sc(NC(=O)N3CCC(C)(O)CC3)nc12	9.4
CNC(=O)c1nc(-c2ccc(Cl)c(S(=O)(=O)Nc3cccc(F)c3C)c2)cnc1N	7.6
c1ccc(Nc2ncc3ccccc3n2)cc1	3.6
O=C([O-])c1ccc(NCc2cccc(Oc3ccccc3)c2)cn1	4.45
O=S(=O)(Nc1cc(F)ccc1F)c1ccc2[nH]c3c(c2c1)CCCC3	7.3
CS(=O)(=O)c1ccc(-c2cnc(N)c(-c3ccc(C(F)(F)F)nc3)c2)cc1	4.8
Cc1csc2ncnc(NCCc3ccc(Cl)cc3)c12	3.9

Further lines, results first:

pKa	SMILES
8.6	Cc1[nH]c2ccccc2c1CC[NH2+]Cc1ccc(CCC(=O)N=O)cc1
5.3	Fc1ccc2c(/C=C/c3cccnc3)c[nH]c2c1
5.2	CC(=O)n1cc(C2=C([O-])CC(C)(C)CC2=O)c2ccccc21
4.8	c1ccc(-c2nc3n(c2-c2ccccc2)CCS3)cc1
4.75	Cc1cc(C)nc(N2CCC3(CCCN(Cc4nn(C)cc4-c4ccccc4)C3=O)CC2)n1
8.7	C1=CN2CC(c3ccccc3)[NH+]=C2S1 (configuration not stated)
9.8	Cc1ccc2c(c1)C(=O)C(=O)N2
8.4	COc1cccc(-c2nnc3n(Cc4ccccc4Cl)c(=O)c4ccccc4n23)c1O
2.9	COC(=O)/C=C/C(=O)[O-]
4.35	Cc1nc(C#Cc2ccnc(Cl)c2)c(C)n1-c1ccc(F)cc1
4.2	CCN(CC)c1ncnc2c1cnn2C
7	N#Cc1cc(C[NH+]2CCC(Nc3ncnc4sc(Cl)cc34)CC2)ccc1F
6	COC(=O)Cn1c(C[NH+]2CCC(Cc3ccccc3)CC2)nc2c1c(=O)n(C)c(=O)n2C
8.9	COc1cc2c(cc1OC)CN(c1cc(N)c3cc(OC)c(OC)cc3[nH+]1)CC2
